In this assay the target is T1, human PD-L1 (293T-hPD-L1 cells; binding of PE-labeled PD-1-Ig) (Homo sapiens, UniProt Q9NZQ7).
T1 construct: expressed in transfected cells; host or cells: 293T (human embryonic kidney) stably over-expressing human PD-L1
Kind of assay: 293T-hPD-L1 Cell Binding High-Content Screening Assay (CBA). How it is done: 293T-hPD-L1 Cell Binding High-Content Screening Assay (CBA).
Phycoerythrin (PE) was covalently linked to the Ig epitope tag of human PD-1-Ig and fluorescently-labeled PD-1-Ig was used for binding studies with a human embryonic kidney cell line (293T) stably over-expressing human PD-L1 (293T-hPD-L1). Briefly, 2×10^3 293T-hPD-L1 cells were seeded into 384 well plates in 20 μl of DMEM supplemented with 10% fetal calf serum and cultured overnight. 125 nl of compound was added to cells followed by 5 μl of PE-labeled PD-1-Ig (0.5 nM final), diluted in DMEM supplemented with 10% fetal calf serum, followed by incubation at 37° C. for 1 h. Cells were washed 3× in 100 μl dPBS followed by fixation with 30 μl of 4% paraformaldehyde in dPBS containing 10 μg/ml Hoechst 33342 for 30 min at room temperature. Cells were washed 3× in 100 μl of dPBS followed by final addition of 15 μl of dPBS. Data was collected and processed using a Cell Insight NXT High Content Imager and associated software.
Table 1 lists the IC50 values for representative examples of this disclosure measured in the 293T-hPD-L1 Cell Binding High-Content Screening Assay.

Like-named read-outs stand apart in the source and are kept apart here.

T1 sequence (Q9NZQ7 19-290): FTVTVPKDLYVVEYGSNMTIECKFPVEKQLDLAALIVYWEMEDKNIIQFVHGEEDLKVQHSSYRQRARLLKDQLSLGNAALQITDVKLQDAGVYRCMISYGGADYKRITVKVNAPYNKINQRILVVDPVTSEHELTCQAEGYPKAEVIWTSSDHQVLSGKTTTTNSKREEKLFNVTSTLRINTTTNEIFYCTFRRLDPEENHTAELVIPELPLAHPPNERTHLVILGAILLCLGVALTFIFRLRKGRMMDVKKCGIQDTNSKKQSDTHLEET

By IC50 is commonly meant the concentration that inhibits the measured activity by half. On to `CCCC[C@H]1C(=O)N(C)[C@@H](CCCC)C(=O)N[C@@H](CC(C)C)C(=O)N[C@H](C(=O)NCC(=O)N[C@@H](Cc2cn(CCOCCOCCOCCOCCOCCOCCOCCOCCOCCOCCOCCNC(=O)CC[C@H](NC(=O)CCCCCCCCCOc3ccc(C(=O)O)cc3)C(=O)O)nn2)C(=O)O)CSCC(=O)N[C@@H](Cc2ccc(O)cc2)C(=O)N(C)[C@@H](C)C(=O)N[C@@H](CC(N)=O)C(=O)N2CCC[C@H]2C(=O)N[C@@H](CN)C(=O)N[C@@H](CC(C)C)C(=O)N2C[C@H](O)C[C@H]2C(=O)N[C@@H](Cc2c[nH]c3ccccc23)C(=O)N[C@@H](CCN)C(=O)N[C@@H](Cc2cn(CC(=O)O)c3ccccc23)C(=O)N1C` [Example 1001], for which the IC50 (293T cells stably over-expressing human PD-L1, PE-labeled human PD-1-Ig 0.5 nM final, 37° C. for 1 h, read-out: 293T-hPD-L1_PD-1 IC50) came out at 3.3 nM. Molecule `CCCC[C@H]1C(=O)N(C)[C@@H](CCCC)C(=O)N[C@@H](CC(C)C)C(=O)N[C@H](C(=O)NCC(=O)N[C@@H](Cc2cn(CCOCCOCCOCCOCCOCCOCCOCCOCCOCCOCCOCCNC(=O)CC[C@H](NC(=O)CCCCCCCCCCCOc3ccc(C(=O)O)cc3)C(=O)O)nn2)C(=O)O)CSCC(=O)N[C@@H](Cc2ccc(O)cc2)C(=O)N(C)[C@@H](C)C(=O)N[C@@H](CC(N)=O)C(=O)N2CCC[C@H]2C(=O)N[C@@H](CN)C(=O)N[C@@H](CC(C)C)C(=O)N2C[C@H](O)C[C@H]2C(=O)N[C@@H](Cc2c[nH]c3ccccc23)C(=O)N[C@@H](CCN)C(=O)N[C@@H](Cc2cn(CC(=O)O)c3ccccc23)C(=O)N1C` [Example 1003] returned a half-inhibitory concentration (IC50) of 3.6 nM.

The values above are taken from patent US20260167671A1, “IMMUNOMODULATORS” (Bristol-Myers Squibb Company, priority 2021, published 2026).
